We go through 87 compounds from PubChem BioAssay AID1625 (Sanford-Burnham Center for Chemical Genomics, 2009).

Calls of active or inactive are those of the source.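 The calls were made as follows: active = z-score above 3 at 5 µM with at least 500 cells counted in the well; inconclusive = wells under 500 cells, flagged as cytotoxic or low count; inactive = the rest.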 Some results are limits rather than exact numbers.

In the test the test system is MIN6 insulin promoter-GFP reporter, high-content imaging. The test is described as follows: up-regulation of insulin promoter-GFP reporter – imaging, high-content screening, mouse beta cells (AID 1625).
As to `CCOc1cc([N+](=O)[O-])cc2c1C(=O)Nc1ccccc1O2`, the EC50 is > 16 µM (inactive).

Take `COc1cc(OC)c(-c2c3cc(O)c(=O)cc-3oc3cc(O)c(O)cc23)cc1OC`: the EC50 was 8.54 µM.

Turning to `C=CCN1C(=O)/C(=C/c2ccc(N(C)C)cc2)S/C1=N\c1nnc(CC)s1`, the EC50 was 3.86 µM.

Take `COc1cc2nc(/C=C/c3ccc(N(C)C)cc3)sc2cc1SC`: the EC50 is 7.43 µM.

For `CCCCn1nc(-c2ccccc2)c2nc3ccccc3nc21`, the EC50 is > 16 µM (inactive).

As to `COc1ccc(C2C(C(C)=O)=C(C)N=c3s/c(=C\c4cc(C)n(C)c4C)c(=O)n32)c(OC)c1` (configuration not stated), the EC50 is 8.89 µM.

With `O=C(O)c1cc(-c2ccc(/C=C3/SC(=S)N(Cc4ccccc4)C3=O)o2)ccc1Cl`, the EC50 was 10.5 µM (inactive).

As to `CC1=C/C(=C\C=C(C#N)C#N)N(C)c2ccccc21`, the EC50 was > 16 µM (inactive).

With `CCCCn1c(O)c(C(=O)/C=C/c2c[nH]c3ccccc23)c(=O)[nH]c1=O`, the EC50 was > 16 µM (inactive).

Take `CCCN1C(=O)S/C(=C\c2ccc(N3CCOCC3)o2)C1=O`: the EC50 was 13.9 µM (inactive).

As for `Nc1c(C(=O)C2CC2)sc2nc(-c3cccs3)cc(C(F)(F)F)c12`, the EC50 is 4.16 µM.

On to `O=[N+]([O-])c1ccc(N(c2ccccc2)c2ccccc2)cc1`, for which the EC50 is > 16 µM (inactive).

`Cc1ccc(Nc2nc(Cl)c(C=O)s2)cc1Cl`: the EC50 is > 16 µM (inactive).

In the case of `N#C/C(=C/c1ccc(N2CCOCC2)o1)c1ccc(Cl)cc1`, the EC50 is 9.12 µM.

`CC(C)N1CCc2c(sc(NC(=O)c3ccc(S(=O)(=O)N4CCc5ccccc54)cc3)c2C(N)=O)C1`: the EC50 was > 16 µM (inactive).

In the case of `COc1ccccc1NS(=O)(=O)c1cc([N+](=O)[O-])ccc1N/N=C/c1sc(N2CCOCC2)nc1-c1ccccc1`, the EC50 is 1.83 µM.

As to `O=c1oc2c3c4c(cc2c(C(F)(F)F)c1CCN1CCOCC1)CCCN4CCC3`, the EC50 was 6.05 µM.

With `CCN(CC)c1ccc(/C=C2/SC(=O)N(C(C)C)C2=O)o1`, the EC50 was 4.26 µM.

With `CC(C)(C)NC(=S)N/N=C\c1ccc(-c2ccc([N+](=O)[O-])cc2)o1`, the EC50 is 14.3 µM (inactive).

Take `O=[N+]([O-])c1ccc(C2=NN(c3ccccc3)C(c3ccco3)C2)cc1` (configuration not stated): the EC50 was 9.19 µM.

Take `CN1CC=C2C(C#N)=C(N)C(C#N)(C#N)C(Cc3ccccc3)C2C1` (configuration not stated): the EC50 was 11.7 µM (inactive).

Take `CCOC(=O)C1=C(C)NC(=O)NC1c1ccc(N2CCC(c3ccccc3)=N2)cc1` (configuration not stated): the EC50 was > 16 µM (inactive).

As for `N#C/C(=C\c1ccc(N2CCOCC2)o1)c1nc2ccccc2[nH]1`, the EC50 was 3.42 µM.

As to `CCN1CC=C2C(C#N)=C(N)C(C#N)(C#N)C(CCc3ccccc3)C2C1` (configuration not stated), the EC50 is 8.02 µM.

With `C=CCN1C=CC(=CC=C(C#N)C#N)C=C1`, the EC50 was 10.4 µM (inactive).

Take `CCN1CC=C2C(C1)C(c1ccc(Cl)s1)C(C#N)=C(N)C2(C#N)C#N` (configuration not stated): the EC50 was 8.89 µM.

As for `CCCN1C(=O)c2cccc3c(N4CCCCC4)ccc(c23)C1=O`, the EC50 is > 16 µM (inactive).

As to `CCN(CC)c1ccc(/C=C/C(=O)c2ccc(Br)cc2)cc1`, the EC50 was 7.06 µM.

As for `CCN(CC)c1ccc(/C=C2\SC(=O)N(C(C)C)C2=O)o1`, the EC50 is 4.61 µM.

Take `O=C(/C=C/c1c[nH]c2ccccc12)c1c(O)n(CCc2ccccc2)c(=O)[nH]c1=O`: the EC50 was > 16 µM (inactive).

Take `CCCCN1C(=O)/C(=C/C=C2\N(C)c3ccccc3C2(C)C)SC1=S`: the EC50 was 5.6 µM.

In the case of `CN1C=CC2=C(C#N)C(N)C(C#N)(C#N)C(c3ccccc3)C2C1` (configuration not stated), the EC50 was 7.42 µM.

In the case of `CN(C)c1ccc(/C=C2\CCC/C(=C\c3ccccc3)C2=O)cc1`, the EC50 is > 16 µM (inactive).

Take `O=C(/C=C/c1ccc(N2CCC(c3ccccc3)=N2)cc1)c1ccccc1`: the EC50 is 2.6 µM.

For the compound `C=CCN1C(=O)/C(=C/C=C2/N(CC)c3ccc(S(=O)(=O)N(C)C)cc3N2CC)SC1=S`, the EC50 was > 16 µM (inactive).

In the case of `N#Cc1cccc(NC(=O)CSc2ccc3c4c(cccc24)C(=O)c2ccccc2-3)c1`, the EC50 is 14.7 µM (inactive).

As to `COc1ccc(C(=O)c2sc3nc(-c4ccccc4)ccc3c2N)cc1OC`, the EC50 was > 16 µM (inactive).

`Cc1ccc(CNc2ccc3c(c2)OCO3)cc1`: the EC50 was > 16 µM (inactive).

On to `N#CC1CC(c2ccc([N+](=O)[O-])cc2)=NN1c1ccc([N+](=O)[O-])cc1` (configuration not stated), for which the EC50 is > 16 µM (inactive).

For `CCN(CC)c1ccc2cc(C(=O)Nc3ccccn3)c(=O)oc2c1`, the EC50 was > 16 µM (inactive).

With `COC(=O)c1cc2c(-c3ccccc3)cc3ccccn3c-2c1C(=O)OC`, the EC50 is > 16 µM (inactive).

As to `Cn1cc(/C=C2\SC(=S)N(NC(=O)c3ccccc3Cl)C2=O)c2ccccc21`, the EC50 is > 16 µM (inactive).

With `Cn1c(=O)c(N)c2c3c(c(Br)ccc31)C(=O)c1ccccc1-2`, the EC50 was 8.88 µM.

For the compound `CC1=CN2C(=N)/C(=C/c3ccc([N+](=O)[O-])o3)C(=O)N=C2S1`, the EC50 is > 16 µM (inactive).

Take `CC(=O)C1=C(C)NC(SCC(=O)c2ccc(Cl)c(Cl)c2)=C(C#N)C1c1ccco1` (configuration not stated): the EC50 is > 16 µM (inactive).

With `O=C(O)c1ccccc1N/N=C/c1c(Sc2nnnn2-c2ccccc2)nc2ccccn2c1=O`, the EC50 was 5.97 µM.

As for `Nc1c(C(=O)c2ccc(Cl)cc2)sc2nsc(SCCN3CCOCC3)c12`, the EC50 is 5.95 µM.

For `CC(=O)c1c(N2CCOCC2)[nH]c(-c2ccccc2)nc1=S`, the EC50 was 13.5 µM (inactive).

In the case of `COCCCNc1c2c3c(cccc3[nH]c1=O)C(=O)c1ccccc1-2`, the EC50 was 4.03 µM.

With `CC(=O)c1ccc2cccc3c2c1N=CN3C`, the EC50 was > 16 µM (inactive).

`O=c1[nH]c2ccccc2nc1/C=C/c1ccc(F)cc1`: the EC50 is > 16 µM (inactive).

`Cc1cccn2c(=O)c(/C=C3\SC(=S)N(CC(C)C)C3=O)c(NCCCOC(C)C)nc12`: the EC50 is > 16 µM (inactive).

On to `COc1cc(OC)c(OC)cc1/C=C1\Oc2cc(OS(C)(=O)=O)ccc2C1=O`, for which the EC50 is > 16 µM (inactive).

As to `Cc1cc2c(C(F)(F)F)cc(=O)oc2c2c1NCCC2`, the EC50 was > 16 µM (inactive).

`Nc1c(C(=O)c2ccccc2)sc2nsc(SCCN3CCCC3)c12`: the EC50 is 8.41 µM.

On to `CCN(CC)c1ccc(/C=C(\C#N)C(=O)c2ccc(Br)cc2)cc1`, for which the EC50 is 12 µM (inactive).

In the case of `CCOC(=O)CN1C(=O)S/C(=C/c2ccc(N3CCCCC3)o2)C1=O`, the EC50 was 8.3 µM.

Turning to `N#CC1=C(N)C(C#N)(C#N)[C@H](c2ccoc2)[C@H]2CN(Cc3ccccc3)CC=C12`, the EC50 is 9.87 µM.

Regarding `COc1ccc2nc(SCC(C)=O)c(C#N)cc2c1`, the EC50 is 8.2 µM.

Turning to `Nc1c(C(=O)Nc2nc3ccccc3s2)sc2nc(-c3cccs3)ccc12`, the EC50 was 12.8 µM (inactive).

As for `N#Cc1c(-c2ccco2)cc(C2CC2)nc1SCC(=O)c1ccccc1`, the EC50 was > 16 µM (inactive).

Turning to `O=C1S/C(=C/c2ccc(N3CCOCC3)o2)C(=O)N1Cc1c(F)cccc1Cl`, the EC50 is 1.76 µM.

Take `CCN1C(=O)/C(=C/C=C2\N(CC)c3cc(S(=O)(=O)N(C)C)ccc3N2c2ccccc2)SC1=S`: the EC50 was 6.67 µM.

Take `CCCNC(=O)Cn1c(=O)/c(=C\c2ccc(-c3ccc([N+](=O)[O-])cc3)o2)s/c1=C\C(=O)C(C)(C)C`: the EC50 was 0.359 µM.

With `Cc1ccc(-c2ccc(/C=C(\C#N)C(=O)Nc3cc(C)nn3-c3ccccc3)o2)cc1`, the EC50 was > 16 µM (inactive).

For the compound `CCCCN1C(=O)C2(NNc3ccccc3O2)c2ccccc21` (configuration not stated), the EC50 was > 16 µM (inactive).

With `CN1CCN(c2ccc(/C=C3\C(=O)NC(=S)N(c4cccc(Br)c4)C3=O)o2)CC1`, the EC50 was > 16 µM (inactive).

For `Nc1c(C(=O)N/N=C/c2cccnc2)oc2nc(-c3ccccc3)cc(-c3ccco3)c12`, the EC50 is > 16 µM (inactive).

As to `C=CCN1C(=O)/C(=C\C=C2\N(C)c3ccccc3C2(C)C)SC1=S`, the EC50 is > 16 µM (inactive).

Turning to `CCNc1ccc2noc3c2c1C(=O)c1ccccc1-3`, the EC50 is > 16 µM (inactive).

Consider `CCN(CC)c1ccc(/C=N/c2sc3c(c2C#N)C2CCN3CC2)c(O)c1`, for which the EC50 was 2.83 µM.

Regarding `COC(=O)c1cc2c(-c3ccccc3)c(C)c3ccccn3c-2c1C(=O)OC`, the EC50 was > 16 µM (inactive).

For the compound `Cc1ccc(-c2cn3nc(-c4ccccc4)c(-c4ccccc4)nc3n2)cc1`, the EC50 is 12.4 µM (inactive).

Take `CN1/C(=C\C=C2/SC(=S)NC2=O)C(C)(C)c2ccccc21`: the EC50 was 9.29 µM.

Consider `COc1cc(/C=C(\C#N)c2nc3ccccc3o2)ccc1O`, for which the EC50 was > 16 µM (inactive).

Regarding `O=C1S/C(=C/c2ccc(N3CCOCC3)o2)C(=O)N1Cc1ccc(F)cc1`, the EC50 is > 16 µM (inactive).

Consider `Cc1cc2nc3c(=O)n(C4CCCCC4)c(=O)[nH]c3nc2cc1N`, for which the EC50 is 8.73 µM.

Consider `Cc1ccc(S(=O)(=O)CCSc2nc(C)cc(C(F)(F)F)c2C#N)cc1`, for which the EC50 was > 16 µM (inactive).

As to `CSc1c(C#N)c(N)nc2sc(C(=O)c3ccc(Cl)c(Cl)c3)c(N)c12`, the EC50 was > 16 µM (inactive).

For the compound `Cc1cc(N/N=C/c2ccc([N+](=O)[O-])o2)nc2ccccc12`, the EC50 is > 16 µM (inactive).

`Cc1ccc(NS(=O)(=O)c2cc([N+](=O)[O-])ccc2N/N=C/c2sc(N3CCOCC3)nc2-c2ccccc2)c(C)c1`: the EC50 was > 16 µM (inactive).

As for `CCCN1C(=O)/C(=C/c2c(N3CCNC(=O)C3CC(=O)OCC)nc3c(C)cccn3c2=O)SC1=S` (configuration not stated), the EC50 was > 16 µM (inactive).

For `N#C/C(=C\c1ccc(N2CCOCC2)o1)C(=O)NCCc1ccccc1`, the EC50 is > 16 µM (inactive).

On to `C(=C/c1nccc2c1[nH]c1ccccc12)/c1ccc2c(c1)OCO2`, for which the EC50 is 11.9 µM (inactive).

As for `N#C/C(=C/c1ccc(N2CCCCC2)o1)C(=O)NCCc1c[nH]c2ccccc12`, the EC50 was 5.17 µM.

For the compound `CCN1/C(=C/C=C/c2oc3ccc4ccccc4c3[n+]2CC)Oc2ccc3ccccc3c21`, the EC50 was below 0.25 µM.

Turning to `CCCN(CCC)c1ccc(/C=C/c2ccc3cc(OCC)ccc3n2)cc1`, the EC50 is > 16 µM (inactive).
